According to US20180110754A1, “CENICRIVIROC FOR THE TREATMENT OF FIBROSIS” (Tobira Therapeutics, Inc., priority 2015, published 2018):

What was measured:
[1] = system: HIV-1; test: Study 202 Phase 2b: virologic response (HIV-1 RNA <50 copies/mL, FDA Snapshot); format: in vivo, human
Source text: Subjects with a history of HIV-2, hepatitis B and/or C, cirrhosis of the liver or any known active or chronic active liver disease were excluded from the study.
The primary efficacy endpoint was virologic response at Week 24, defined as HIV-1 RNA<50 copies/mL using the FDA Snapshot Algorithm.

[2] = Study 202: fasting metabolic laboratory parameters; format: in vivo
Source text: All abnormalities in total cholesterol, LDL cholesterol, triglycerides, or glucose were Grade 1 or Grade 2.
Mean baseline values and changes from baseline in HbA1c, HOMA-IR, fasting LDL, fasting HDL, fasting total cholesterol, fasting total cholesterol/HDL ratio, and fasting triglycerides are shown in Table 36.

[3] = All CVC (N = 115), EFV (N = 28), through Week 48
[4] = CVC 100 mg (N = 58), through Week 48
[5] = CVC 200 mg (N = 57), through Week 48

Structure (SMILES): CCCCOCCOc1ccc(-c2ccc3c(c2)/C=C(/C(=O)Nc2ccc([S@@+]([O-])Cc4cncn4CCC)cc2)CCCN3CC(C)C)cc1 [CVC, (S)-8-[4-(2-Butoxyethoxy)phenyl]-1-isobutyl-N-(4-{[(1-propyl-1H-imidazol-5-yl)methyl]sulfinyl}phenyl)-1,2,3,4-tetrahydro-1-benzazocine-5-carboxamide]
- Virologic success (HIV-1 RNA <50 copies/mL) ([1]; CVC 100 mg + FTC/TDF, Week 24): 76%
- Virologic success (HIV-1 RNA <50 copies/mL) ([1]; CVC 100 mg + FTC/TDF, Week 48): 68%
- Virologic success (HIV-1 RNA <50 copies/mL) ([1]; CVC 200 mg + FTC/TDF, Week 24): 73%
- Virologic success (HIV-1 RNA <50 copies/mL) ([1]; CVC 200 mg + FTC/TDF, Week 48): 64%
- Any graded (Grade 1-4) fasting laboratory abnormality, n subjects [2, 3]: 16
- Fasting LDL cholesterol abnormality, any grade, n subjects [2, 3]: 6
- Fasting LDL cholesterol, worst Grade 1, n subjects [2, 3]: 3
- Fasting LDL cholesterol, worst Grade 2, n subjects [2, 3]: 3
- Fasting LDL cholesterol, worst Grade 3, n subjects [2, 3]: 0
- Fasting LDL cholesterol, worst Grade 4, n subjects [2, 3]: 0
- Fasting glucose (serum, high) abnormality, any grade, n subjects [2, 3]: 5
- Fasting glucose (serum, high), worst Grade 1, n subjects [2, 3]: 3
- Fasting glucose (serum, high), worst Grade 2, n subjects [2, 3]: 2
- Fasting glucose (serum, high), worst Grade 3, n subjects [2, 3]: 0
- Fasting glucose (serum, high), worst Grade 4, n subjects [2, 3]: 0
- Fasting laboratory abnormality, worst Grade 1, n subjects [2, 3]: 9
- Fasting laboratory abnormality, worst Grade 2, n subjects [2, 3]: 7
- Fasting laboratory abnormality, worst Grade 3, n subjects [2, 3]: 0
- Fasting laboratory abnormality, worst Grade 4, n subjects [2, 3]: 0
- Fasting total cholesterol abnormality, any grade, n subjects [2, 3]: 8
- Fasting total cholesterol, worst Grade 1, n subjects [2, 3]: 5
- Fasting total cholesterol, worst Grade 2, n subjects [2, 3]: 3
- Fasting total cholesterol, worst Grade 3, n subjects [2, 3]: 0
- Fasting total cholesterol, worst Grade 4, n subjects [2, 3]: 0
- Fasting triglycerides abnormality, any grade, n subjects [2, 3]: 1
- Fasting triglycerides, worst Grade 1, n subjects [2, 3]: 0
- Fasting triglycerides, worst Grade 2, n subjects [2, 3]: 1
- Fasting triglycerides, worst Grade 3, n subjects [2, 3]: 0
- Fasting triglycerides, worst Grade 4, n subjects [2, 3]: 0
- Any graded (Grade 1-4) fasting laboratory abnormality, n subjects [2, 4]: 4 (7%)
- Fasting LDL cholesterol abnormality, any grade, n subjects [2, 4]: 2 (3%)
- Fasting LDL cholesterol, worst Grade 1, n subjects [2, 4]: 1 (2%)
- Fasting LDL cholesterol, worst Grade 2, n subjects [2, 4]: 1 (2%)
- Fasting LDL cholesterol, worst Grade 3, n subjects [2, 4]: 0
- Fasting LDL cholesterol, worst Grade 4, n subjects [2, 4]: 0
- Fasting glucose (serum, high) abnormality, any grade, n subjects [2, 4]: 0
- Fasting glucose (serum, high), worst Grade 1, n subjects [2, 4]: 0
- Fasting glucose (serum, high), worst Grade 2, n subjects [2, 4]: 0
- Fasting glucose (serum, high), worst Grade 3, n subjects [2, 4]: 0
- Fasting glucose (serum, high), worst Grade 4, n subjects [2, 4]: 0
- Fasting laboratory abnormality, worst Grade 1, n subjects [2, 4]: 3 (5%)
- Fasting laboratory abnormality, worst Grade 2, n subjects [2, 4]: 1 (2%)
- Fasting laboratory abnormality, worst Grade 3, n subjects [2, 4]: 0
- Fasting laboratory abnormality, worst Grade 4, n subjects [2, 4]: 0
- Fasting total cholesterol abnormality, any grade, n subjects [2, 4]: 3 (5%)
- Fasting total cholesterol, worst Grade 1, n subjects [2, 4]: 3 (5%)
- Fasting total cholesterol, worst Grade 2, n subjects [2, 4]: 0
- Fasting total cholesterol, worst Grade 3, n subjects [2, 4]: 0
- Fasting total cholesterol, worst Grade 4, n subjects [2, 4]: 0
- Fasting triglycerides abnormality, any grade, n subjects [2, 4]: 0
- Fasting triglycerides, worst Grade 1, n subjects [2, 4]: 0
- Fasting triglycerides, worst Grade 2, n subjects [2, 4]: 0
- Fasting triglycerides, worst Grade 3, n subjects [2, 4]: 0
- Fasting triglycerides, worst Grade 4, n subjects [2, 4]: 0
- Any graded (Grade 1-4) fasting laboratory abnormality, n subjects [2, 5]: 12
- Fasting LDL cholesterol abnormality, any grade, n subjects [2, 5]: 4
- Fasting LDL cholesterol, worst Grade 1, n subjects [2, 5]: 2
- Fasting LDL cholesterol, worst Grade 2, n subjects [2, 5]: 2
- Fasting LDL cholesterol, worst Grade 3, n subjects [2, 5]: 0
- Fasting LDL cholesterol, worst Grade 4, n subjects [2, 5]: 0
- Fasting glucose (serum, high) abnormality, any grade, n subjects [2, 5]: 5
- Fasting glucose (serum, high), worst Grade 1, n subjects [2, 5]: 3
- Fasting glucose (serum, high), worst Grade 2, n subjects [2, 5]: 2
- Fasting glucose (serum, high), worst Grade 3, n subjects [2, 5]: 0
- Fasting glucose (serum, high), worst Grade 4, n subjects [2, 5]: 0
- Fasting laboratory abnormality, worst Grade 1, n subjects [2, 5]: 6
- Fasting laboratory abnormality, worst Grade 2, n subjects [2, 5]: 6
- Fasting laboratory abnormality, worst Grade 3, n subjects [2, 5]: 0
- Fasting laboratory abnormality, worst Grade 4, n subjects [2, 5]: 0
- Fasting total cholesterol abnormality, any grade, n subjects [2, 5]: 5
- Fasting total cholesterol, worst Grade 1, n subjects [2, 5]: 2
- Fasting total cholesterol, worst Grade 2, n subjects [2, 5]: 3
- Fasting total cholesterol, worst Grade 3, n subjects [2, 5]: 0
- Fasting total cholesterol, worst Grade 4, n subjects [2, 5]: 0
- Fasting triglycerides abnormality, any grade, n subjects [2, 5]: 1
- Fasting triglycerides, worst Grade 1, n subjects [2, 5]: 0
- Fasting triglycerides, worst Grade 2, n subjects [2, 5]: 1
- Fasting triglycerides, worst Grade 3, n subjects [2, 5]: 0
- Fasting triglycerides, worst Grade 4, n subjects [2, 5]: 0
- Fasting HDL, mean change from baseline ([2]; Week 4, All CVC, EFV): -2.92 mg/dL
- Fasting LDL, mean change from baseline ([2]; Week 4, All CVC, EFV): -9.72 mg/dL
- Fasting total cholesterol, mean change from baseline ([2]; Week 4, All CVC, EFV): -14 mg/dL
- Fasting triglycerides, mean change from baseline ([2]; Week 4, All CVC, EFV): -5 mg/dL
- HOMA-IR, mean change from baseline ([2]; Week 4, All CVC, EFV): −0.30
- HbA1c, mean change from baseline ([2]; Week 4, All CVC, EFV): −0.03 % Hb
- Fasting HDL, mean change from baseline ([2]; Week 4, CVC 100 mg): -3.98 mg/dL
- Fasting LDL, mean change from baseline ([2]; Week 4, CVC 100 mg): -10.90 mg/dL
- Fasting total cholesterol, mean change from baseline ([2]; Week 4, CVC 100 mg): -16 mg/dL
- Fasting triglycerides, mean change from baseline ([2]; Week 4, CVC 100 mg): -8 mg/dL
- HOMA-IR, mean change from baseline ([2]; Week 4, CVC 100 mg): 0.11
- HbA1c, mean change from baseline ([2]; Week 4, CVC 100 mg): 0.01 % Hb
- Fasting HDL, mean change from baseline ([2]; Week 4, CVC 200 mg): -1.84 mg/dL
- Fasting LDL, mean change from baseline ([2]; Week 4, CVC 200 mg): -8.46 mg/dL
- Fasting total cholesterol, mean change from baseline ([2]; Week 4, CVC 200 mg): -12 mg/dL
- Fasting triglycerides, mean change from baseline ([2]; Week 4, CVC 200 mg): -2 mg/dL
- HOMA-IR, mean change from baseline ([2]; Week 4, CVC 200 mg): −0.71
- HbA1c, mean change from baseline ([2]; Week 4, CVC 200 mg): −0.08 % Hb
- Fasting HDL, mean change from baseline ([2]; Week 12, All CVC, EFV): -2.09 mg/dL
- Fasting LDL, mean change from baseline ([2]; Week 12, All CVC, EFV): -11.44 mg/dL
- Fasting total cholesterol, mean change from baseline ([2]; Week 12, All CVC, EFV): -17 mg/dL
- Fasting triglycerides, mean change from baseline ([2]; Week 12, All CVC, EFV): -15 mg/dL
- HOMA-IR, mean change from baseline ([2]; Week 12, All CVC, EFV): −0.56
- HbA1c, mean change from baseline ([2]; Week 12, All CVC, EFV): −0.06 % Hb
- Fasting HDL, mean change from baseline ([2]; Week 12, CVC 100 mg): -2.96 mg/dL
- Fasting LDL, mean change from baseline ([2]; Week 12, CVC 100 mg): -11.20 mg/dL
- Fasting total cholesterol, mean change from baseline ([2]; Week 12, CVC 100 mg): -17 mg/dL
- Fasting triglycerides, mean change from baseline ([2]; Week 12, CVC 100 mg): -16 mg/dL
- HOMA-IR, mean change from baseline ([2]; Week 12, CVC 100 mg): −0.59
- HbA1c, mean change from baseline ([2]; Week 12, CVC 100 mg): −0.04 % Hb
- Fasting HDL, mean change from baseline ([2]; Week 12, CVC 200 mg): -1.22 mg/dL
- Fasting LDL, mean change from baseline ([2]; Week 12, CVC 200 mg): -11.69 mg/dL
- Fasting total cholesterol, mean change from baseline ([2]; Week 12, CVC 200 mg): -16 mg/dL
- Fasting triglycerides, mean change from baseline ([2]; Week 12, CVC 200 mg): -13 mg/dL
- HOMA-IR, mean change from baseline ([2]; Week 12, CVC 200 mg): −0.53
- HbA1c, mean change from baseline ([2]; Week 12, CVC 200 mg): −0.08 % Hb
- Fasting HDL, mean change from baseline ([2]; Week 24, All CVC, EFV): -1.45 mg/dL
- Fasting LDL, mean change from baseline ([2]; Week 24, All CVC, EFV): -8.64 mg/dL
- Fasting total cholesterol, mean change from baseline ([2]; Week 24, All CVC, EFV): -13 mg/dL
- Fasting triglycerides, mean change from baseline ([2]; Week 24, All CVC, EFV): -15 mg/dL
- HOMA-IR, mean change from baseline ([2]; Week 24, All CVC, EFV): −0.68
- HbA1c, mean change from baseline ([2]; Week 24, All CVC, EFV): 0.06 % Hb
- Fasting HDL, mean change from baseline ([2]; Week 24, CVC 100 mg): -2.15 mg/dL
- Fasting LDL, mean change from baseline ([2]; Week 24, CVC 100 mg): -10.21 mg/dL
- Fasting total cholesterol, mean change from baseline ([2]; Week 24, CVC 100 mg): -14 mg/dL
- Fasting triglycerides, mean change from baseline ([2]; Week 24, CVC 100 mg): -8 mg/dL
- HOMA-IR, mean change from baseline ([2]; Week 24, CVC 100 mg): −1.42
- HbA1c, mean change from baseline ([2]; Week 24, CVC 100 mg): 0.06 % Hb
- Fasting HDL, mean change from baseline ([2]; Week 24, CVC 200 mg): -0.71 mg/dL
- Fasting LDL, mean change from baseline ([2]; Week 24, CVC 200 mg): -6.93 mg/dL
- Fasting total cholesterol, mean change from baseline ([2]; Week 24, CVC 200 mg): -12 mg/dL
- Fasting triglycerides, mean change from baseline ([2]; Week 24, CVC 200 mg): -23 mg/dL
- HOMA-IR, mean change from baseline ([2]; Week 24, CVC 200 mg): 0.15
- HbA1c, mean change from baseline ([2]; Week 24, CVC 200 mg): 0.06 % Hb
- Fasting HDL, mean change from baseline ([2]; Week 48, All CVC, EFV): -0.96 mg/dL
- Fasting LDL, mean change from baseline ([2]; Week 48, All CVC, EFV): -8.49 mg/dL
- Fasting total cholesterol, mean change from baseline ([2]; Week 48, All CVC, EFV): -12 mg/dL
- Fasting triglycerides, mean change from baseline ([2]; Week 48, All CVC, EFV): -12 mg/dL
- HOMA-IR, mean change from baseline ([2]; Week 48, All CVC, EFV): −0.76
- HbA1c, mean change from baseline ([2]; Week 48, All CVC, EFV): 0.10 % Hb
- Fasting HDL, mean change from baseline ([2]; Week 48, CVC 100 mg): -1.63 mg/dL
- Fasting LDL, mean change from baseline ([2]; Week 48, CVC 100 mg): -11.16 mg/dL
- Fasting total cholesterol, mean change from baseline ([2]; Week 48, CVC 100 mg): -14 mg/dL
- Fasting triglycerides, mean change from baseline ([2]; Week 48, CVC 100 mg): -9 mg/dL
- HOMA-IR, mean change from baseline ([2]; Week 48, CVC 100 mg): −1.56
- HbA1c, mean change from baseline ([2]; Week 48, CVC 100 mg): 0.09 % Hb
- Fasting HDL, mean change from baseline ([2]; Week 48, CVC 200 mg): -0.21 mg/dL
- Fasting LDL, mean change from baseline ([2]; Week 48, CVC 200 mg): -5.20 mg/dL
- Fasting total cholesterol, mean change from baseline ([2]; Week 48, CVC 200 mg): -9 mg/dL
- Fasting triglycerides, mean change from baseline ([2]; Week 48, CVC 200 mg): -16 mg/dL
- HOMA-IR, mean change from baseline ([2]; Week 48, CVC 200 mg): 0.17
- HbA1c, mean change from baseline ([2]; Week 48, CVC 200 mg): 0.10 % Hb
- Change in fasting cholesterol (total, LDL, HDL) during treatment ([2]; through Week 48): A decrease was observed
